Converted amounts (≈) assume the structure as drawn. Read-outs that look alike come from different tables or passages of the source.
Experiments:
Assay type in all cases: cell-based
B. fragilis ATCC 25285 = assay: MIC (broth microdilution or agar dilution, CLSI); conditions: Bacteroides fragilis, read-out: MIC
How it was run: (§1)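 Following CLSI guidelines, broth microdilution or agar dilution spans usually 128-0.06 μg/mL (2.5% DMSO final), triplicate runs, clindamycin comparator. Inocula for broth work are 5×10^5 CFU/mL in cation-adjusted Mueller-Hinton; anaerobic strains get specialized handling.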

C. difficile ATCC 700057 = assay: MIC (broth microdilution or agar dilution, CLSI)
How it was run: as §1

C. scindens ATCC 35704 = assay: MIC (broth microdilution or agar dilution, CLSI)
How it was run: as §1

[1] = system: E. coli MP-74 LptD mutant; assay: MIC (broth microdilution or agar dilution, CLSI); conditions: Escherichia coli
How it was run: as §1

E. faecium Clinical VRE = assay: MIC (broth microdilution or agar dilution, CLSI); conditions: Enterococcus faecium; E. faecium Clinical VRE; read-out: MIC
How it was run: as §1

E. faecium Line R & VRE = assay: MIC (broth microdilution or agar dilution, CLSI)
How it was run: as §1

E. faecium VRE = assay: MIC (broth microdilution or agar dilution, CLSI); conditions: Enterococcus faecium; E. faecium VRE; read-out: MIC
How it was run: as §1

P. aeruginosa ATCC 27853 = assay: MIC (broth microdilution or agar dilution, CLSI)
How it was run: as §1

P. aeruginosa ΔAmex OprM = assay: MIC (broth microdilution or agar dilution, CLSI)
How it was run: as §1

S. aureus MRSA = assay: MIC (broth microdilution or agar dilution, CLSI); conditions: Staphylococcus aureus
How it was run: as §1

S. aureus cErmA = assay: MIC (broth microdilution or agar dilution, CLSI); conditions: Staphylococcus aureus; S. aureus cErmA; read-out: MIC
How it was run: as §1

A. baumannii ATCC 19606 = assay: MIC (broth microdilution or agar dilution, CLSI)
How it was run: (§2)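 Inoculum for broth microdilution was 5×10^5 CFU/mL final, prepared from overnight 35° C blood-agar subcultures (separate handling for streptococcal and anaerobic strains); MICs read by CLSI broth microdilution or agar dilution.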

E. coli ATCC 25922 = assay: MIC (broth microdilution or agar dilution, CLSI)
How it was run: as §2

[2] = system: E. faecalis MMX 847; cErmB; assay: MIC (broth microdilution or agar dilution, CLSI)
How it was run: as §2

H. influenzae ATCC 49247 = assay: MIC (broth microdilution or agar dilution, CLSI)
How it was run: as §2

S. pneumoniae ATCC 6303 = assay: MIC (broth microdilution or agar dilution, CLSI)
How it was run: as §2

E. faecalis VRE [3] = assay: MIC (CLSI), second E. faecalis VRE line of Table 4; conditions: Enterococcus faecalis; E. faecalis VRE (Table 4, second VRE line); read-out: MIC
Protocol: (§3) Minimum inhibitory concentrations (MICs) were determined by broth microdilution method or agar dilution method following the Clinical and Laboratory Standards Institute guidelines. Standard bacterial strains were obtained from American Type Culture Collection (ATCC). Other bacterial strains were obtained from hospitals and commercial sources, so noted in Table 11. Before the start of the MIC experiment, standard and test compound stock solutions were prepared in dimethyl sulfoxide (DMSO, Aldrich D2650) at a stock concentration of 5,120 μg/mL. The compound concentration range typically employed for each experiment was 128-0.06 μg/mL (2.5% final DMSO concentration). Clindamycin was used as a comparator in all experiments and each experiment was performed in triplicate. Specialized procedures were employed for streptococcal and anaerobic strains. All other bacterial strains were sub-cultured on blood agar plates (tryptic soy agar with 5% sheep blood, Hardy Diagnostics) and incubated overnight at 35° C. Organisms were suspended in cation-adjusted Mueller-Hinton broth (CaMHB, BD 212322) and optical density was adjusted to 0.5 McFarland standard. Suspensions were further diluted to obtain a final inoculum of 5×10^5 CFU/mL for broth microdilution experiments.

E. faecalis VRE [4] = assay: MIC (CLSI), third E. faecalis VRE line of Table 4; conditions: Enterococcus faecalis; E. faecalis VRE (Table 4, third VRE line); read-out: MIC
Protocol: as §3

Escherichia coli c-ermB = assay: MIC, clinically derived E. coli with acquired resistance
Protocol: as §3

E. coli strain SQ110DTC = assay: MIC in LB medium against E. coli SQ110DTC and its FSA-513018b-resistant mutants (Table 14); conditions: Escherichia coli
[5] = P. aeruginosa HAV#009, ATCC 27853
[6] = P. aeruginosa HAV#039, ΔAmex OprM
[7] = A. baumanii HAV#010, ATCC 19606
[8] = E. faecalis HAV#036, MMX 847, mac-resistant, cErmB
[9] = S. pneumoniae HAV#351, ATCC 6303
[10] = Enterococcus faecalis, E. faecalis HAV#036, MMX 847, mac-resistant, cErmB, read-out: MIC
[11] = Streptococcus pneumoniae, ATCC6303, S. pneumoniae HAV#351, ATCC 6303, read-out: MIC

Molecule: CSC1O[C@H]([C@H](NC(=O)[C@H]2NC[C@@H]3C[C@H](CC(C)C)CCO[C@H]32)[C@H](C)Cl)C(O)[C@@H](O)[C@H]1O (stereo partly drawn) [FSA-513018b]
- MIC (B. fragilis ATCC 25285; ATCC25285, B. fragilis ATCC 25285): 0.5 µg/mL (≈ 1.01 µM)
- MIC (B. fragilis ATCC 25285; ATCC25285, B. fragilis HAV#013, ATCC 25285): 0.5 µg/mL (≈ 1.01 µM)
- MIC (C. difficile ATCC 700057; C. difficile HAV#011, ATCC 700057): 0.25 µg/mL (≈ 0.505 µM)
- MIC (C. difficile ATCC 700057; Clostridioides difficile, ATCC700057, C. difficile ATCC 700057, read-out: MIC): 0.25 µg/mL (≈ 0.505 µM)
- MIC (C. scindens ATCC 35704; C. scindens HAV#012, ATCC 35704): 0.125 µg/mL (≈ 0.252 µM)
- MIC (C. scindens ATCC 35704; [Clostridium] scindens, ATCC35704, C. scindens ATCC 35704, read-out: MIC): 0.125 µg/mL (≈ 0.252 µM)
- MIC [1]: 1 µg/mL (≈ 2.02 µM)
- MIC (E. faecium Clinical VRE): 1 µg/mL (≈ 2.02 µM)
- MIC (E. faecium Line R & VRE; Enterococcus faecium, E. faecium HAV#319, Line R & Vanco R, read-out: MIC): ≤ 0.06 µg/mL
- MIC (E. faecium Line R & VRE; Enterococcus faecium, E. faecium Line R & VRE, read-out: MIC): 0.06 µg/mL (≈ 0.121 µM)
- MIC (E. faecium VRE): 1 µg/mL (≈ 2.02 µM)
- MIC (P. aeruginosa ATCC 27853; [5]): 128 µg/mL (≈ 259 µM)
- MIC (P. aeruginosa ATCC 27853; Pseudomonas aeruginosa, ATCC27853, P. aeruginosa ATCC 27853, read-out: MIC): 128 µg/mL (≈ 259 µM)
- MIC (P. aeruginosa ΔAmex OprM; [6]): 4 µg/mL (≈ 8.08 µM)
- MIC (P. aeruginosa ΔAmex OprM; Pseudomonas aeruginosa): 4 µg/mL (≈ 8.08 µM)
- MIC (S. aureus MRSA): 0.06 µg/mL (≈ 0.121 µM)
- MIC (S. aureus cErmA): 4 µg/mL (≈ 8.08 µM)
- MIC (A. baumannii ATCC 19606; [7]): 4 µg/mL (≈ 8.08 µM)
- MIC (A. baumannii ATCC 19606; Acinetobacter baumannii, ATCC19606, A. baumannii ATCC 19606, read-out: MIC): 4 µg/mL (≈ 8.08 µM)
- MIC (E. coli ATCC 25922; E. coli HAV#006, ATCC 25922): 8 µg/mL (≈ 16.2 µM)
- MIC (E. coli ATCC 25922; Escherichia coli, ATCC25922, E. coli ATCC 25922, read-out: MIC): 8 µg/mL (≈ 16.2 µM)
- MIC [2, 8]: 1 µg/mL (≈ 2.02 µM)
- MIC ([2]; Enterococcus faecalis, E. faecalis MMX 847, cErmB, read-out: MIC): 1 µg/mL (≈ 2.02 µM)
- MIC (H. influenzae ATCC 49247; H. influenzae HAV#007, ATCC 49247): 1 µg/mL (≈ 2.02 µM)
- MIC (H. influenzae ATCC 49247; Haemophilus influenzae, ATCC49247, H. influenzae ATCC 49247, read-out: MIC): 1 µg/mL (≈ 2.02 µM)
- MIC (S. pneumoniae ATCC 6303; [9]): 0.03 µg/mL (≈ 0.0606 µM)
- MIC (S. pneumoniae ATCC 6303; Streptococcus pneumoniae, ATCC6303, S. pneumoniae ATCC 6303, read-out: MIC): 0.03 µg/mL (≈ 0.0606 µM)
- MIC (E. faecalis VRE [3]): 1 µg/mL (≈ 2.02 µM)
- MIC (E. faecalis VRE [4]): 1 µg/mL (≈ 2.02 µM)
- MIC (Escherichia coli c-ermB; E. coli HAV#504, Clinical, cErmB): 8 µg/mL (≈ 16.2 µM)
- MIC (Escherichia coli c-ermB; Escherichia coli): 8 µg/mL (≈ 16.2 µM)
- MIC (E. coli strain SQ110DTC; E. coli SQ110DTC, WT): 0.03 µg/mL (≈ 0.0606 µM)
- MIC (E. coli strain SQ110DTC; clone SA-3R1, mutation 2058G, selection plate 1 μg/mL FSA-513018b): 4 µg/mL (≈ 8.08 µM)
- MIC (E. coli strain SQ110DTC; clone SA-3R2, mutation 2059G, selection plate […] FSA-513018b): 2 µg/mL (≈ 4.04 µM)
- MIC (E. coli strain SQ110DTC; clone SA-3R9, mutation 2058G, selection plate […] FSA-513018b): 4 µg/mL (≈ 8.08 µM)
- MIC (E. coli strain SQ110DTC; clone SA-3R13, mutation 2059G, selection plate 1 μg/mL FSA-513018b): 2 µg/mL (≈ 4.04 µM)
- MIC (E. coli strain SQ110DTC; read-out: MICs of resistant clones, SQ110DTC clones selected on agar containing FSA-513018b (A2058G or A2059G in 23S rRNA)): 2 to 4 µg/mL (≈ 4.04 to 8.08 µM)

Molecule: C[C@H]1COc2c(N3CCN(C)CC3)c(F)cc3c(=O)c(C(=O)O)cn1c23 [Levofloxacin]
- MIC (P. aeruginosa ATCC 27853; Pseudomonas aeruginosa, ATCC27853, P. aeruginosa HAV#009, ATCC 27853, read-out: MIC): 2 µg/mL (≈ 5.53 µM)
- MIC (P. aeruginosa ΔAmex OprM; Pseudomonas aeruginosa): 0.125 µg/mL (≈ 0.346 µM)
- MIC (A. baumannii ATCC 19606; Acinetobacter baumannii, ATCC19606, A. baumanii HAV#010, ATCC 19606, read-out: MIC): 1 µg/mL (≈ 2.77 µM)
- MIC (E. coli ATCC 25922; Escherichia coli, ATCC25922, E. coli HAV#006, ATCC 25922, read-out: MIC): ≤ 0.06 µg/mL
- MIC [2, 10]: > 64 µg/mL
- MIC (S. pneumoniae ATCC 6303; [11]): 0.5 µg/mL (≈ 1.38 µM)

Molecule: CC(=O)NC[C@H]1CN(c2ccc(N3CCOCC3)c(F)c2)C(=O)O1 [Linezolid]
- MIC (E. coli ATCC 25922; Escherichia coli, ATCC25922, E. coli HAV#006, ATCC 25922): > 128 µg/mL
- MIC [2, 10]: 2 µg/mL (≈ 5.93 µM)
- MIC (S. pneumoniae ATCC 6303; [11]): 1 µg/mL (≈ 2.96 µM)

Molecule: CN[C@H](CC(C)C)C(=O)N[C@H]1C(=O)N[C@@H](CC(N)=O)C(=O)N[C@H]2C(=O)N[C@H]3C(=O)N[C@H](C(=O)N[C@H](C(=O)O)c4cc(O)cc(O)c4-c4cc3ccc4O)[C@H](O)c3ccc(c(Cl)c3)Oc3cc2cc(c3O[C@@H]2O[C@H](CO)[C@@H](O)[C@H](O)[C@H]2O[C@H]2C[C@](C)(N)[C@H](O)[C@H](C)O2)Oc2ccc(cc2Cl)[C@H]1O [Vancomycin]
- MIC (E. coli ATCC 25922; Escherichia coli, ATCC25922): > 128 µg/mL
- MIC ([2]; Enterococcus faecalis): > 64 µg/mL
- MIC (H. influenzae ATCC 49247; Haemophilus influenzae, ATCC49247): > 64 µg/mL
- MIC (S. pneumoniae ATCC 6303; Streptococcus pneumoniae, ATCC6303): 0.5 µg/mL (≈ 0.345 µM)

Molecule: Gentamicin
- MIC (E. faecium Line R & VRE; E. faecium HAV#319, Line R & Vanco R): 64 µg/mL
- MIC (P. aeruginosa ATCC 27853; [5]): >64 µg/mL
- MIC (P. aeruginosa ΔAmex OprM; [6]): >64 µg/mL
- MIC (A. baumannii ATCC 19606; [7]): >64 µg/mL
- MIC (E. coli ATCC 25922; E. coli HAV#006, ATCC 25922): 2 µg/mL
- MIC [2, 8]: >64 µg/mL
- MIC (S. pneumoniae ATCC 6303; [9]): 32 µg/mL

From patent US20230203081A1, “LINCOSAMIDE ANTIBIOTICS AND USES THEREOF” (President and Fellows of Harvard College, priority 2020, published 2023)
